Experimental data published in patent US5183821A, “Method for treating leukemias using N-(2-dimethylaminoethyl)-3-amino-1,8-naphthalimide for treating leukemias and solid tumors” (priority 1991, dated 1993).

How the values were obtained:
[1] = tested on: L-1210 Lymphoid Leukemia; assay: NCI screen, L-1210 Lymphoid Leukemia, subcutaneous (summary); format: in vivo, Mouse
Text: The activity of the compound has been evaluated by experiments carried out under the auspices of the Division of Cancer Treatment, National Cancer Institute, employing techniques considered to be reliable indicators of chemotherapeutic utility in the treatment of forms of cancer in human patients. The details of the methodology employed in the reported experiments may be determined with reference to established NCI screening methods. In the experiments conducted by the NCI, evaluation of activity is made on the basis of appropriate parameters, such as median survival time (MST) or change in average tumor diameter (CATD)in ocular micrometer units (OMU).

[2] = tested on: P388 Lymphocytic leukemia; assay: Experiment 11: P388 i.p., 10^6 cells, saline with Tween-80, female; format: in vivo, Mouse CD2 F1 (CDF1)
Text: (§1) Host: Mouse CD2 F1 (CDF1)
Tumor: P388 Lymphocytic leukemia
(§2) Inoculum Site: Intraperitoneal
(§3) Vehicle: Saline with Tween-80
(§4) Treatment schedule (relative to tumor inoculation day): daily on days 1-9
(§5) Day of evaluation (relative to tumor inoculation day): 30
(§6) Parameter: Median survival time (MST) in days
(§7) NCI minimal activity criteria: Percent T/C≥120
(§8) Percent T/C: Ratio of test (T) evaluation to control (C) evaluation expressed as a percentage

[3] = tested on: L-1210 Lymphoid leukemia; assay: Experiment 4: L-1210 s.c., 10^5 cells, acid diluted with saline, male; format: in vivo, Mouse CD2 F1 (CDF1)
Text: as §1
(§9) Tumor: L-1210 Lymphoid leukemia
(§10) Inoculum Site: Subcutaneous
Vehicle: acid diluted with saline
as §4, §5, §6
(§11) NCI minimal activity criteria: Percent T/C≥125
as §8

[4] = tested on: L-1210 Lymphoid leukemia; assay: Experiment 5: L-1210 i.p., 10^5 cells, acid diluted with saline, female; format: in vivo, Mouse CD2 F1 (CDF1)
Text: as §1, §9, §2
(§12) Vehicle: Acid diluted with saline
as §4, §5, §6, §11, §8

[5] = tested on: P 388 Lymphocytic leukemia; assay: Experiment 10: P388 i.p., 10^6 cells, saline with Tween-80, male; format: in vivo, Mouse CD2F1 (CDF1)
Text: Tumor: P 388 Lymphocytic leukemia
as §2, §3, §4, §5, §6, §7, §8

[6] = tested on: Colon 38; assay: Experiment 15: Colon 38 s.c., saline with Tween-80, female; format: in vivo, Mouse B6 D2 F1 (BDF1)
Text: Host: Mouse B6 D2 F1 (BDF1)
as §10, §3
Treatment schedule (relative to tumor inoculation day): Days 2 and 9
Day of evaluation (relative to tumor inoculation day): 20
Parameter: Median tumor weight (MTW) estimated from tumor diameter
NCI minimal activity criteria: Percent T/C≤42
as §8

[7] = tested on: L-1210 Lymphoid leukemia; assay: Experiment 2: L-1210 s.c., 10^5 cells, acid diluted with saline, female; format: in vivo, Mouse CD2 F1 (CDF1)
Text: as §1, §9
Inoculum site: Subcutaneous
as §12, §4, §5, §6, §11, §8

[8] = tested on: B16 Melanocarcinoma; assay: Experiment 20: B16 i.p., acid diluted with saline, female; format: in vivo, Mouse B6 C3 F1
Text: (§13) Tumor: B16 Melanocarcinoma
as §2
(§14) Tissue: Homogenate (or brei), tumor
as §12, §4
(§15) Day of evaluation (relative to tumor inoculation day): 60
as §6, §11, §8

[9] = tested on: B16 Melanocarcinoma; assay: Experiment 17: B16 i.p., saline with Tween-80, female; format: in vivo, Mouse B6C3F1
Text: as §13, §2, §14, §3, §4, §15, §6, §11, §8

[10] = tested on: L-1210 Lymphoid leukemia; assay: Experiment 1: L-1210 i.p., 10^4 cells, acid diluted with saline, male; format: in vivo, Mouse CD2 F1 (CDF1)
Text: as §1, §9
Inoculum Site: intraperitoneal
Vehicle: Acid Diluted with saline
as §4, §5, §6, §11, §8

[11] = tested on: beagle dogs; conditions: dog, in vivo
Text: To determine the source of the color, the following analyses were done: HPLC and TLC (for drug); routine urinalyses, orthotolidine reagent strip and sulfosalicylic acid/ammonium sulfate precipitation tests (for occult blood).

[12] = 16.00 mg/kg i.p., control MTW outside normal limits
[13] = 32.00 mg/kg i.p., control MTW outside normal limits
[14] = 64.00 mg/kg i.p., control MTW outside normal limits

SMILES: CN(C)CCN1C(=O)c2cccc3cc(N)cc(c23)C1=O [Example 9, 1H-Benz[de]isoquinoline-1,3(2H)-dione, 5-amino-2-[2-(dimethylamino)ethyl]]
- Table II evaluation ([1]; median survival time, 16 tests, full wrapped cell: Activity substantially greater than the minimal): Activity
- Antitumor activity in words ([1]; s.c. implanted L1210): active
- Median survival time (MST) ([2]; 8.00 mg/kg i.p.): 17.0 days
- Percent T/C ([2]; 8.00 mg/kg i.p.): 144%
- Median survival time (MST) ([2]; 16.00 mg/kg i.p.): 21.0 days
- Percent T/C ([2]; 16.00 mg/kg i.p.): 177%
- Median survival time (MST) ([2]; 32.00 mg/kg i.p.): 7.3 days
- Median survival time (MST) ([2]; 65.00 mg/kg i.p.): 6.4 days
- Median survival time (MST) ([3]; 0.00 mg/kg [sic] i.p.): 8.9 days
- Percent T/C ([3]; 0.00 mg/kg [sic] i.p.): 101%
- Median survival time (MST) ([3]; 5.00 mg/kg i.p.): 10.4 days
- Percent T/C ([3]; 5.00 mg/kg i.p.): 118%
- Median survival time (MST) ([3]; 7.00 mg/kg i.p.): 10.7 days
- Percent T/C ([3]; 7.00 mg/kg i.p.): 121%
- Median survival time (MST) ([3]; 10.00 mg/kg i.p.): 12.0 days
- Percent T/C ([3]; 10.00 mg/kg i.p.): 136%
- Median survival time (MST) ([3]; 16.00 mg/kg i.p.): 15.3 days
- Percent T/C ([3]; 16.00 mg/kg i.p.): 173%
- Median survival time (MST) ([3]; 24.00 mg/kg i.p.): 11.0 days
- Percent T/C ([3]; 24.00 mg/kg i.p.): 125%
- Median survival time (MST) ([4]; 5.00 mg/kg i.p.): 11.0 days
- Percent T/C ([4]; 5.00 mg/kg i.p.): 113%
- Median survival time (MST) ([4]; 7.00 mg/kg i.p.): 11.1 days
- Percent T/C ([4]; 7.00 mg/kg i.p.): 114%
- Median survival time (MST) ([4]; 10.00 mg/kg i.p.): 11.4 days
- Percent T/C ([4]; 10.00 mg/kg i.p.): 117%
- Median survival time (MST) ([4]; 16.00 mg/kg i.p.): 17.0 days
- Percent T/C ([4]; 16.00 mg/kg i.p.): 175%
- Median survival time (MST) ([4]; 24.00 mg/kg i.p.): 13.3 days
- Percent T/C ([4]; 24.00 mg/kg i.p.): 137%
- Median survival time (MST) ([5]; 2.00 mg/kg i.p.): 13.3 days
- Percent T/C ([5]; 2.00 mg/kg i.p.): 135%
- Median survival time (MST) ([5]; 4.00 mg/kg i.p.): 14.0 days
- Percent T/C ([5]; 4.00 mg/kg i.p.): 142%
- Median survival time (MST) ([5]; 8.00 mg/kg i.p.): 17.3 days
- Percent T/C ([5]; 8.00 mg/kg i.p.): 176%
- Median survival time (MST) ([5]; 16.00 mg/kg i.p.): 13.0 days
- Percent T/C ([5]; 16.00 mg/kg i.p.): 132%
- Median survival time (MST) ([5]; 32.00 mg/kg i.p.): 6.1 days
- Median tumor weight (MTW) [6, 12]: 2261
- Percent T/C [6, 12]: 108%
- Median tumor weight (MTW) [6, 13]: 1440
- Percent T/C [6, 13]: 69%
- Median tumor weight (MTW) [6, 14]: 368
- Percent T/C [6, 14]: 17%
- Median tumor weight (MTW) ([6]; 128.00 mg/kg i.p.): Deaths before evaluation
- Median survival time (MST) ([7]; 5.00 mg/kg i.p.): 8.2 days
- Percent T/C ([7]; 5.00 mg/kg i.p.): 102%
- Median survival time (MST) ([7]; 7.00 mg/kg i.p.): 8.3 days
- Percent T/C ([7]; 7.00 mg/kg i.p.): 103%
- Median survival time (MST) ([7]; 10.00 mg/kg i.p.): 9.0 days
- Percent T/C ([7]; 10.00 mg/kg i.p.): 112%
- Median survival time (MST) ([7]; 16.00 mg/kg i.p.): 12.0 days
- Percent T/C ([7]; 16.00 mg/kg i.p.): 150%
- Median survival time (MST) ([7]; 24.00 mg/kg i.p.): 9.3 days
- Percent T/C ([7]; 24.00 mg/kg i.p.): 116%
- Median survival time (MST) ([8]; 0.00 mg/kg [sic] i.p.): 18.3 days
- Percent T/C ([8]; 0.00 mg/kg [sic] i.p.): 97%
- Median survival time (MST) ([8]; 2.00 mg/kg i.p.): 18.3 days
- Percent T/C ([8]; 2.00 mg/kg i.p.): 97%
- Median survival time (MST) ([8]; 4.00 mg/kg i.p.): 20.0 days
- Percent T/C ([8]; 4.00 mg/kg i.p.): 106%
- Median survival time (MST) ([8]; 8.00 mg/kg i.p.): 20.9 days
- Percent T/C ([8]; 8.00 mg/kg i.p.): 111%
- Median survival time (MST) ([8]; 16.00 mg/kg i.p.): 20.8 days
- Percent T/C ([8]; 16.00 mg/kg i.p.): 110%
- Median survival time (MST) ([8]; 32.00 mg/kg i.p.): 6.7 days
- Median survival time (MST) ([9]; 1.00 mg/kg i.p.): 18.8 days
- Percent T/C ([9]; 1.00 mg/kg i.p.): 102%
- Median survival time (MST) ([9]; 2.00 mg/kg i.p.): 17.0 days
- Percent T/C ([9]; 2.00 mg/kg i.p.): 102%
- Median survival time (MST) ([9]; 4.00 mg/kg i.p.): 20.0 days
- Percent T/C ([9]; 4.00 mg/kg i.p.): 120%
- Median survival time (MST) ([9]; 8.00 mg/kg i.p.): 19.4 days
- Percent T/C ([9]; 8.00 mg/kg i.p.): 116%
- Median survival time (MST) ([9]; 16.00 mg/kg i.p.): 22.9 days
- Percent T/C ([9]; 16.00 mg/kg i.p.): 137%
- Median survival time (MST) ([9]; 32.00 mg/kg i.p.): 7.0 days
- Median survival time (MST) ([10]; 2.00 mg/kg i.p.): 9.9 days
- Percent T/C ([10]; 2.00 mg/kg i.p.): 107%
- Median survival time (MST) ([10]; 4.00 mg/kg i.p.): 10.4 days
- Percent T/C ([10]; 4.00 mg/kg i.p.): 113%
- Median survival time (MST) ([10]; 8.00 mg/kg i.p.): 12.3 days
- Percent T/C ([10]; 8.00 mg/kg i.p.): 133%
- Median survival time (MST) ([10]; 16.00 mg/kg i.p.): 20.0 days
- Percent T/C ([10]; 16.00 mg/kg i.p.): 217%
- Median survival time (MST) ([10]; 32.00 mg/kg i.p.): 8.8 days
- Percent T/C ([10]; 32.00 mg/kg i.p.): 95%
- blood in urine [11]: the presence of blood was negligible
